Test results taken from ChEMBL document CHEMBL1212744, “Relative contributions of active mediated transport and passive diffusion of fluoroquinolones with various lipophilicities in a Calu-3 lung epithelial cell model” (Antimicrob Agents Chemother, 2010).

Legend:
[1] = Distribution coefficient, log D of the compound; details: octanol/water
[2] = Apparent permeability across basolateral to apical side in human Calu3 cells
[3] = Apparent permeability across apical to basolateral side in human Calu3 cells
[4] = Efflux ratio of apparent permeability across basolateral to apical side over apical to basolateral side in human Calu3 cells

logD [1] | Papp B→A [2] [×10⁻⁶ cm/s] | Papp A→B [3] [×10⁻⁶ cm/s] | efflux ratio [4] | Compound
-0.41 | – | – | – | C[C@H]1COc2c(N3CCN(C)CC3)c(F)cc3c(=O)c(C(=O)O)cn1c23.C[C@H]1COc2c(N3CCN(C)CC3)c(F)cc3c(=O)c(C(=O)O)cn1c23.O [LEVOFLOXACIN]
– | 10.4 | 5 | – | COc1c(N2C[C@@H]3CCCN[C@@H]3C2)c(F)cc2c(=O)c(C(=O)O)cn(C3CC3)c12 [MOXIFLOXACIN]
0.03 | 11.8 | 3.1 | 3.8 | Cc1c(F)c(N2CCNC(C)C2)cc2c1c(=O)c(C(=O)O)cn2C1CC1 (stereo unspecified) [GREPAFLOXACIN]
-1.16 | 2 | 0.6 | 3.3 | CCn1cc(C(=O)O)c(=O)c2cc(F)c(N3CCNCC3)cc21 [NORFLOXACIN]
